Like-named read-outs stand apart in the source and are kept apart here.
How the values were obtained:
serotonin transporter = target: T1, serotonin transporter (Rattus norvegicus, UniProt P31652); assay: 5-HT transporter affinity: displacement of 3H-paroxetine from male rat cortical membranes; type: binding; settings: for Ki: displacement of 3H-paroxetine, male rat cortical membranes, read-out: 5-HT Transporter Affinity Ki
T1 construct: displace ^3H-paroxetine from male rat cortical membranes; from tissue; host or cells: male rat cortical membranes
T1 sequence (P31652 whole entry): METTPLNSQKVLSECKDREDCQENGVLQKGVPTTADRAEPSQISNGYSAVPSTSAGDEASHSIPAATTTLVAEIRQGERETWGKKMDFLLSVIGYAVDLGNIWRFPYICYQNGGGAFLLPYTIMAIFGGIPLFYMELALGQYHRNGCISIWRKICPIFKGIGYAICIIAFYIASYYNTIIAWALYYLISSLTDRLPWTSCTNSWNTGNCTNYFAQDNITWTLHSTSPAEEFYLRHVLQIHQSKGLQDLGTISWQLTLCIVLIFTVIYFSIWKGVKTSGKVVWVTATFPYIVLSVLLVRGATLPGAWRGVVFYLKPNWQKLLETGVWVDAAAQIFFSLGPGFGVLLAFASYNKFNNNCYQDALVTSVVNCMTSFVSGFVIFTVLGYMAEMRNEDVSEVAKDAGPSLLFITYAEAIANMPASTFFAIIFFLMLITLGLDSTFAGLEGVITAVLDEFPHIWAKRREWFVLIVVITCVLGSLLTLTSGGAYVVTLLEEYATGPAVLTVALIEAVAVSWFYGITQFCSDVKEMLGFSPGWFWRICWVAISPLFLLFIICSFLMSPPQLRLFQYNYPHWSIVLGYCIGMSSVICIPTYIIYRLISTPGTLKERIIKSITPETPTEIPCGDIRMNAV

[1] = target: T2, cloned human 5-HT1A receptors (Homo sapiens, UniProt P08908); assay: 35S-GTPγS binding assay, 5-HT1A function; type: biochemical; settings: for EC50: agonist potency; for IC50: antagonist potency, reversal of 8-OH-DPAT, read-out: 5-HT1A Function GTPγS IC50
T2 construct: expressed in transfected cells
T2 sequence (P08908 1-422): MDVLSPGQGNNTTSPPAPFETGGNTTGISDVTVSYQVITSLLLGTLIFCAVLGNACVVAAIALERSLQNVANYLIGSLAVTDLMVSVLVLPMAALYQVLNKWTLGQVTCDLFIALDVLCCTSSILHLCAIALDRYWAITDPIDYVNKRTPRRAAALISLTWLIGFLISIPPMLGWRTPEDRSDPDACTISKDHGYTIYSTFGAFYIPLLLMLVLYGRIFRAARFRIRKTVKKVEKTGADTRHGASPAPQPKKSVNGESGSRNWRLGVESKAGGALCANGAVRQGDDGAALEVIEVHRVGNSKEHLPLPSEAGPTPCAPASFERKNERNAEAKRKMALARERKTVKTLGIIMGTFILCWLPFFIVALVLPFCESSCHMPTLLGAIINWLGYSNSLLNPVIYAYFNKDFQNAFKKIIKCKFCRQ
Source text: (§1) The agonist or antagonist activity at 5-HT1A receptors was established by using two different assays. […] Agonists produce an increase in binding whereas antagonists produce no increase but rather reverse the effects of the standard agonist 8-OH-DPAT. The test compound's maximum stimulatory effect is represented as the Emax, while its potency is defined by the EC50. The test compound's maximum inhibitory effect is represented as the Imax, while its potency is defined by the IC50. The second assay measured cAMP accumulation upon binding of the ligand to the 5-HT1A receptor. […] The test compound's maximum stimulatory or inhibitory effect is represented as the Emax while its potency is defined by either IC50 for an antagonist or EC50 for an agonist. [^3H]-8-OH-DPAT was used to determine maximum agonist or antagonist response in both functional assays.

5-HT1A receptor [2] = target: T3, 5-HT1A receptor (Homo sapiens, UniProt P08908); assay: cAMP accumulation assay, 5-HT1A function; type: cell-based; settings: for EC50: cells marked EC50 (agonist); for Emax / 5-HT1A Function cAMP (Emax): in brackets after EC50 or IC50; for Emax: read-out: 5-HT1A Function cAMP (Emax); for IC50: cells marked IC50 (antagonist), read-out: 5-HT1A Function cAMP IC50
T3 sequence (P08908 1-422): T2 sequence (P08908 1-422)
Source text: as §1

5-HT1A receptor [3] = target: T3, 5-HT1A receptor; assay: 5-HT1A receptor affinity: displacement of [3H] 8-OH-DPAT; type: binding; set-up: expressed in transfected cells; settings: displacement of [3H] 8-OH-DPAT; CHO cells stably transfected with human 5-HT1A receptors; read-out: 5-HT1A Receptor Affinity Ki
[4] = maximum stimulatory effect, in brackets after EC50, read-out: 5-HT1A Function GTPγS (Emax)
[5] = maximum inhibitory effect, in brackets after IC50
[6] = maximum inhibitory effect, in brackets after IC50, read-out: 5-HT1A Function GTPγS (Imax)

Ki (serotonin transporter) [nM]	EC50 [1] [nM]	Emax [1, 4] [%]	Emax (5-HT1A receptor [2]) [%]	Ki (5-HT1A receptor [3]) [nM]	5-HT Transporter Affinity, % @ 1 μM (serotonin transporter; @ 1 μM) [% @ 1 μM]	IC50 [1] [nM]	5-HT1A Function GTPγS (Imax) [1, 5] [%]	IC50 (5-HT1A receptor [2]) [nM]	5-HT1A Function cAMP (Emax) (5-HT1A receptor [2]) [%]	Emax [1, 6] [%]	SMILES	EC50 (5-HT1A receptor [2]) [nM]
22				5.19		323	96	47.5	0		CCCN(C(C)CCc1c[nH]c2ccc(F)cc12)C1COc2c(F)ccc(C(N)=O)c2C1 (single isomer, unassigned) [Compound 12a, 8-fluoro-3-[[3-(5-fluoro-1H-indol-3-yl)-1-methylpropyl](propyl)amino]-3,4-dihydro-2H-chromene-5-carboxamide]	
50	366	73.5		19.4					78		CCCN(C(C)CCc1c[nH]c2ccc(F)cc12)C1COc2c(F)ccc(C(N)=O)c2C1 (single isomer, unassigned) [Compound 12b, 8-fluoro-3-[[3-(5-fluoro-1H-indol-3-yl)-1-methylpropyl](propyl)amino]-3,4-dihydro-2H-chromene-5-carboxamide]	62.6
121				48.8		3000	100	73.7	0		CCCN(C(C)CCc1c[nH]c2ccc(F)cc12)C1COc2c(F)ccc(C(N)=O)c2C1 (single isomer, unassigned) [Compound 12c, 8-fluoro-3-[[3-(5-fluoro-1H-indol-3-yl)-1-methylpropyl](propyl)amino]-3,4-dihydro-2H-chromene-5-carboxamide]	
23.5				24.3		534		76.6	0	100	CCCN(C(C)CCc1c[nH]c2ccc(C#N)cc12)C1COc2c(F)ccc(C(N)=O)c2C1 (single isomer, unassigned) [Compound 13a, 3-[[3-(5-cyano-1H-indol-3-yl)-1-methylpropyl](propyl)amino]-8-fluoro-3,4-dihydro-2H-chromene-5-carboxamide]	
37	1470	56.5		152					68		CCCN(C(C)CCc1c[nH]c2ccc(C#N)cc12)C1COc2c(F)ccc(C(N)=O)c2C1 (single isomer, unassigned) [Compound 13b, 3-[[3-(5-cyano-1H-indol-3-yl)-1-methylpropyl](propyl)amino]-8-fluoro-3,4-dihydro-2H-chromene-5-carboxamide]	139
118				119		2520	92	316	0		CCCN(C(C)CCc1c[nH]c2ccc(C#N)cc12)C1COc2c(F)ccc(C(N)=O)c2C1 (single isomer, unassigned) [Compound 13c, 3-[[3-(5-cyano-1H-indol-3-yl)-1-methylpropyl](propyl)amino]-8-fluoro-3,4-dihydro-2H-chromene-5-carboxamide]	
13.6			0	41.7		2210	59	147			CCCN(C(C)CCCc1c[nH]c2ccc(F)cc12)C1COc2c(F)ccc(C(N)=O)c2C1 (single isomer, unassigned; (+)) [Compound 14a, (+)-8-fluoro-3-[[4-(5-fluoro-1H-indol-3-yl)-1-methylbutyl](propyl)amino]chromane-5-carboxamide]	

More lines, now with the values behind:

SMILES	Ki (serotonin transporter) [nM]	EC50 [1] [nM]	Emax [1, 4] [%]	Emax (5-HT1A receptor [2]) [%]	Ki (5-HT1A receptor [3]) [nM]	5-HT Transporter Affinity, % @ 1 μM (serotonin transporter; @ 1 μM) [% @ 1 μM]	IC50 [1] [nM]	5-HT1A Function GTPγS (Imax) [1, 5] [%]	IC50 (5-HT1A receptor [2]) [nM]	5-HT1A Function cAMP (Emax) (5-HT1A receptor [2]) [%]	Emax [1, 6] [%]	EC50 (5-HT1A receptor [2]) [nM]
CCCN(C1COc2cccc(OC)c2C1)[C@H]1CC[C@@H](c2c[nH]c3ccc(F)cc32)CC1 (relative stereo) [Compound 182, cis-N-[4-(5-fluoro-1H-indol-3-yl)cyclohexyl]-5-methoxy-N-propylchroman-3-amine]	128	893	64.5	65	237							184
CCCN(C1COc2cccc(OC)c2C1)[C@H]1CC[C@H](c2c[nH]c3ccc(F)cc32)CC1 (relative stereo) [Compound 183, trans-N-[4-(5-fluoro-1H-indol-3-yl)cyclohexyl]-5-methoxy-N-propylchroman-3-amine]		10000	35	65.5	183	53						302
CC(CCc1c[nH]c2c(F)cc(F)cc12)N(CC1CC1)C1COc2c(F)ccc(C(N)=O)c2C1 (single isomer, unassigned) [Compound 154c, 3-{(cyclopropylmethyl)[3-(5,7-difluoro-1H-indol-3-yl)-1-methylpropyl]amino}-8-fluorochromane-5-carboxamide]	67.5			0	24.8		1990	100	3090			
CC(Cc1c[nH]c2ccc(F)cc12)CN(CC1CC1)[C@H]1COc2c(F)ccc(C(N)=O)c2C1 (single isomer, unassigned) [Compound 155a]	48.8			0	4.16		151		106		100	
NC(=O)c1ccc(F)c2c1CC(NCCCc1c[nH]c3ccc(F)cc13)CO2 (single isomer, unassigned; (+)) [Compound 1a, (+)-8-fluoro-3-{[3-(5-fluoro-1H-indol-3-yl)propyl]amino}chromane-5-carboxamide]	26.2	993	87	84.5	46.3							95.8
CCCN(CCCc1c[nH]c2ccc(F)cc12)C1COc2c(F)ccc(C(N)=O)c2C1 (single isomer, unassigned; (+)) [Compound 2b, (+)-8-fluoro-3-[[3-(5-fluoro-1H-indol-3-yl)propyl](propyl)amino]-3,4-dihydro-2H-chromene-5-carboxamide]	3.86	36.3	80		2.21					97		19.9
CCN(CCCc1c[nH]c2ccc(F)cc12)C1COc2c(F)ccc(C(N)=O)c2C1 (single isomer, unassigned; (+)) [Compound 3b, (+)-3-{ethyl[3-(5-fluoro-1H-indol-3-yl)propyl]amino}-8-fluoro-3,4-dihydro-2H-chromene-5-carboxamide]	4.5				15.5		665	35.8		90.5		31.4
NC(=O)c1ccc(F)c2c1CC(N(CCCc1c[nH]c3c(F)cc(F)cc13)C1CCC1)CO2 (single isomer, unassigned; (+)) [Compound 9b, (+)-3-{cyclobutyl[3-(5,7-difluoro-1H-indol-3-yl)propyl]amino}-8-fluorochromane-5-carboxamide]	12.2				68.9		6000	74	197	0		
CCCN(CCCCn1ccc2ccc(F)cc21)C1COc2c(F)ccc(C(N)=O)c2C1 (centres unmarked) [Compound 194, 8-Fluoro-3-[[4-(6-fluoro-1H-indol-1-yl)butyl](propyl)amino]chromane-5-carboxamide]	70			81	10.7							74.1
CCCN(CCCCn1ccc2cc(F)ccc21)C1COc2c(F)ccc(C(N)=O)c2C1 (centres unmarked) [Compound 198, 8-Fluoro-3-[[4-(5-fluoro-1H-indol-1-yl)butyl](propyl)amino]chromane-5-carboxamide]	114			82	6.54							67.7
NC(=O)c1ccc(F)c2c1CC(N(CCCCn1ccc3cc(F)ccc31)CC1CC1)CO2 (centres unmarked) [Compound 199, 3-{(Cyclopropylmethyl)[4-(5-fluoro-1H-indol-1-yl)butyl]amino}-8-fluorochromane-5-carboxamide]	77			72	5.44							74.7
CCN(CCCCn1ccc2c(F)cccc21)C1COc2c(F)ccc(C(N)=O)c2C1 (centres unmarked) [Compound 201, 3-{Ethyl[4-(4-fluoro-1H-indol-1-yl)butyl]amino}-8-fluorochromane-5-carboxamide]	95			92	42.7							210
CCCN(CCCCn1ccc2c(F)cccc21)C1COc2c(F)ccc(C(N)=O)c2C1 (centres unmarked) [Compound 202, 8-Fluoro-3-[[4-(4-fluoro-1H-indol-1-yl)butyl](propyl)amino]chromane-5-carboxamide]	210			78	14							137

Source: US20050032873A1, “3-Amino chroman and 2-amino tetralin derivatives” (Wyeth, priority 2003, published 2005)
